According to patent publication EP0260606A2, “Medicament for curing neurotic disturbance or disorder comprising sialocylglycerolipid” (MECT CORPORATION, priority 1986, dated 1988):
Where “and” joins values, the source holds several entries; their conditions need not be identical. Equal values may be shown once. Marks after values point to notes of the source that are not given here.

Tests used:
[1] = system: rats having their sciatic nerves crushed; test: Curing effect on rats with crushed sciatic nerve (distance between toes, weight of musculi soleus); type: in vivo, rat; settings: for Recovery Rate (%) in Distance between the Fingers / Recovery Rate (%) in Weight of the Muscle: ip once per day, average ± S.D.; for Recovery Rate (%) in Weight of the Muscle: 28th Day
Procedure: The curing effect of the compound (I) of the invention on the rats having their sciatic nerves crushed, which were used as models caused by peripheral nervous disturbances, was assessed by examining (l) the change in action of the crushed hind leg and (2) the change in weight of the muscle as indicators for the modification of peripheral nerve and for the recovery course of the disturbance.
In the experiment, seven male Wister family rats (6 weeks age) were used per a group. The sciatic nerve of each rat was crushed in accordance with the method of Yamazu et al. (see Kiyomi Yamazu, Takenori Kaneko, Akifumi Kitahara and Isao Ohkawa, Journal of Japanese Pharmacological Society, 72, 259 - -268 (l976)) and in accordance with the method of Hasegawa et al. (see Kazuo Hasegawa, Naoji Mikuni and Yutaka Sakai, Journal of Japanese Pharmacological Society, 74, 72l - 734 (l978)). Specifically, under anesthesia with Pentobarbital (40 mg/kg, i.p.), the left sciatic nerve was exposed at the femur and the site 5 mm centrally from the branch portion between the N. tibialis and the N. suralis was crushed using a modified artery klemme having a width of 2 mm and gap of 0.l mm. Rats subjected to the operation were randomly dispensed to form the groups subjected to test.
The compound (I) of the invention was intraperitoneally administered one time per day from the day on which the nerve was crushed to the 22nd day. The control groups included a group administered with Mecobalamin (produced by Gedeon Richter Ltd.), a group administered with a 20% aqueous solution of propylene glycol (hereinafter referred to as 20% PG) which was used to dissolve the compound (I) of the invention, and a group administered with a 0.9% aqueous saline solution. The predetermined measurements were conducted with the lapse of time after the crushing operation (at the first, fourth, seventh, tenth, l4th, l5th, l7th, l9th 2lst and 28th days).
The distance between the toes was measured, since this is a good indicator showing the modification and recovery of the function of the nerve and the change thereof could conveniently measured with the lapse of time.
The measurement was conducted in accordance with the method of Hasegawa, (Hasegawa, K., Experientia, 34, 750 - 75l (l978)) by measuring the distance from the first toe to the fifth toe of the hind leg.
The ratio of the distance at the crushed side to the distance at the normal side was calculated as a percentage (%), the average values and the standard deviations (S.D.) being shown in Table 5.
It is known that removal of or disturbance in a certain nerve causes atrophy of the muscle controlled by the nerve, and the atrophy is gradually recovered by the recontrol by the nerve. For this reason, the quantitative change in weight of the muscle was selected as an indicator. At 28th day after the operation, the muscli soleus of both hind legs were extracted under anesthesia with Pentobarbital, and the weights of the muscles were weighed. The weight ratio of the muscli soleus at the crushed side to the muscli soleus at the normal side was calculated and represented by percentage (%).

[2] = system: rat having its nigral depaminergic neuron destroyed; test: Methamphethamine-induced rotational movement after 6-hydroxydopamine lesion and fetal dopaminergic cell transplantation; type: in vivo; settings: for Average of Rotational Movement of Rats (Average + S.D.): group average; for Average of Rotational Movement of Rats (Average + S.D.) / Number of Rotational Movement of Rats: 30 mg/kg; for Number of Rotational Movement of Rats: individual rat, 30 mg/kg every day for two weeks from transplantation; for remedy of motor disturbance: result in words
Source text: The nigral dopaminergic neuron of the brain of a rat was chemically destroyed by injecting a very small quantity of 6-hydroxydopamine to cause motor disturbance.
After the lapse of two weeks, a fetal brain dopaminergic cell was transplanted on the Nucleus caudatus of the rat brain to try to remedy the motor disturbance.
The nigral depaminergic neuron at the left side of the brain of a female Wister family rat aged 4-weeks (Body Weight: l00 g) was destroyed by injecting a very small quantity of 6-hydroxydopamine.
After two weeks from the destruction by the administration of the drug, portions of the […] containing dopamin cells (i.e. substantia nigra and the Tegmentum at the abdomen side) were extracted from the fetal rat brain of a fetal rat of l4 to l7 days age, cut finely, and treated with trypsin. Then, the extracted tissues were incubated at 37°C for 30 minutes, and the tissues were subjected to pipetting to form a suspension. 5 µl each of the suspensions were transplanted on two sites of the Nucleus caudatus of the destructed side, the total of l0 µl (containing about l0⁵ cells) being transplanted.
The rotational movements caused by administration of methamphethamine were examined at the time point before 2 weeks of the transplantation (- 2W), at the time point before one week of the transplantation (- lW) and at the time point after two weeks of the transplantation (2W). The number of rotational movements within one minute were counted at l0 minute intervals after six administrations of methamphethamine, and the total number of rotational movements counted for the six times was averaged to find the mean rotational movement. As controls, the numbers of rotational movements of the rats administered, respectively, with a ganglioside mixture and GM₁ ganglioside were counted.

[3] = - 1W (before transplantation and dosing)
[4] = - 2W (before transplantation and dosing)

CCCCCCCCCCCCCCOCC(COC1(C(=O)O)CC(O)C(NC(C)=O)C(C(O)C(O)CO)O1)OCCCCCCCCCCCCCC (stereo not drawn) [Compound (I)]
Recovery Rate (%) in Distance between the Fingers ([1]; 17th Day, 3 mg/kg, crushed side / normal side): 71.5 ± 5.5 %
Recovery Rate (%) in Distance between the Fingers ([1]; 17th Day, 30 mg/kg): 80.4 ± 9.6 %
Recovery Rate (%) in Distance between the Fingers ([1]; 19th Day, 3 mg/kg): 82.1 ± 9.7%
Recovery Rate (%) in Distance between the Fingers ([1]; 19th Day, 30 mg/kg): 90.3 ± 4.4 %
Recovery Rate (%) in Weight of the Muscle ([1]; 3 mg/kg, musculi soleus, crushed side / normal side): 82.8 ± 6.7%
Recovery Rate (%) in Weight of the Muscle ([1]; 30 mg/kg): 89.1 ± 5.7%
recovery of the distance between the toes and the weight of the musculi soleus ([1]; result in words): promoted the recovery to the normal values
Average of Rotational Movement of Rats (Average + S.D.) ([2]; 2W after transplantation): 2.8+4.0*
Average of Rotational Movement of Rats (Average + S.D.) [2, 3]: 12.3+3.8
Average of Rotational Movement of Rats (Average + S.D.) [2, 4]: 8.2+3.2
Number of Rotational Movement of Rats ([2]; 2W after transplantation): 5.3 and 3.2 and 5.8
Number of Rotational Movement of Rats [2, 3]: 17.4 and 12.2 and 8.4 and 11.0
Number of Rotational Movement of Rats [2, 4]: 12.2 and 5.8 and 5.4 and 9.5
remedy of motor disturbance [2]: effect of promoting the remedy of motor disturbance similar to the ganglioside mixtures
remedy of motor disturbance ([2]; listed as compound (I)): had a function of remedying the nerves similar to gangliosides
